Results on 17 compounds are retold here after patent US20250171438A1 (Agios Pharmaceuticals, Inc., priority 2022, published 2025).

This experiment deals with T1, human PAH with the R408W mutation (Homo sapiens, UniProt P00439, R408W).
T1 construct: expressed in transfected cells
T1 sequence (P00439 1-452 R408W): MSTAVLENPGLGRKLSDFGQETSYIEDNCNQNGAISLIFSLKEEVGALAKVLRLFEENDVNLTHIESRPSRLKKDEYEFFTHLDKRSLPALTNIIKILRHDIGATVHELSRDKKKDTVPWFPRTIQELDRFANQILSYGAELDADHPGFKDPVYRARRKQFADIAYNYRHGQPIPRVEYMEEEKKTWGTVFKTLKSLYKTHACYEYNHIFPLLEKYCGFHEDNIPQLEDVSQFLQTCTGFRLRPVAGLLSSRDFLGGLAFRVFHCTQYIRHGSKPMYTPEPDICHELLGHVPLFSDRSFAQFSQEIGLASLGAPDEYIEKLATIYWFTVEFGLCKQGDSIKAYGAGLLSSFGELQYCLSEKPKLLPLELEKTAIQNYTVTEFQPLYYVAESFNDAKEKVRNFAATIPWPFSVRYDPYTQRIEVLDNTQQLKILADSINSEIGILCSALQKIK
As to the kind of experiment: Cell Based Phenylalanine Flux Assay. Details: scale not given here. The note with it: A375 cells expressing human R408W PAH, 13C-Tyrosine by LC-MS, average where tested multiple times.

[1] abbreviates: 24 hrs compound incubation, read-out: AC50.
The mark [2] stands for this setting: 24 hrs with compound, read-out: AC50.

Like-named read-outs stand apart in the source and are kept apart here.

Take `CN(C)CCc1nc(C(F)(F)F)c(C(=O)N2CCc3[nH]cnc3[C@@H]2c2nc3ccccc3s2)o1` [Example 1582, (R)-(4-(benzo[d]thiazol-2-yl)-6,7-dihydro-1H-imidazo[4,5-c]pyridin-5(4H)-yl)(2-(2-(dimethylamino)ethyl)-4-(trifluoromethyl)oxazol-5-yl)methanone]: under setting [1], the half-maximal activity concentration (AC50) was below 0.5 µM. As to `O=C(c1cnc(C(F)F)s1)N1CCc2[nH]cnc2[C@H]1c1nc2ccccc2s1` [Example 1521], the AC50 under setting [1] is below 0.5 µM. In the case of `O=C(c1cnn2cc(CO)ccc12)N1CCc2[nH]cnc2C1c1nc2ccccc2s1` (centres unmarked), the AC50 under setting [2] was in the range of 1 to 5 µM.

In the case of `O=C(c1cn(CC(F)(F)F)nc1C(F)F)N1CCc2[nH]cnc2[C@H]1c1nc2ccccc2s1` [Example 1985], under setting [1], the AC50 was below 0.5 µM. For the compound `COc1ccc2c(C(=O)N3CCc4[nH]cnc4C3c3nc4ccccc4s3)cnn2c1` (centres unmarked), under setting [2], the AC50 is above 5 µM. On to `O=C(Cc1nncs1)N1CCc2[nH]cnc2C1c1nc2c(F)cccc2s1` (centres unmarked), for which the AC50 under setting [2] was above 5 µM. Take `O=C(c1cc2ccccn2n1)N1CCc2nc[nH]c2C1c1nc2ccccc2s1` (centres unmarked): the AC50 under setting [2] is 1 to 5 µM.

For `Cc1ccc(-c2nnc(C(=O)N3CCc4[nH]cnc4[C@H]3c3nc4c(F)cccc4s3)o2)nc1` [Example 1904, (S)-(4-(4-fluorobenzo[d]thiazol-2-yl)-6,7-dihydro-1H-imidazo[4,5-c]pyridin-5(4H)-yl)(5-(5-methylpyridin-2-yl)-1,3,4-oxadiazol-2-yl)methanone], the AC50 under setting [1] was below 0.5 µM. Regarding `O=C(c1nnc(-c2cc(C(F)(F)F)ccn2)o1)N1CCc2[nH]cnc2[C@@H]1c1nc2c(F)cccc2s1` [Example 1905, (R)-(4-(4-fluorobenzo[d]thiazol-2-yl)-6,7-dihydro-1H-imidazo[4,5-c]pyridin-5(4H)-yl)(5-(4-(trifluoromethyl)pyridin-2-yl)-1,3,4-oxadiazol-2-yl)methanone], under setting [1], the AC50 fell in the range of 0.5 to 1 µM. In the case of `O=C(c1oc(CCN2CC(F)C2)nc1C(F)(F)F)N1CCc2[nH]cnc2[C@H]1c1nc2ccccc2s1` [Example 1575], the AC50 under setting [1] was below 0.5 µM.

As for `O=C(c1oc(-c2ccccn2)nc1C(F)(F)F)N1CCc2[nH]cnc2[C@@H]1c1nc2ccccc2s1` (single isomer, unassigned), the AC50 result (24 hrs with compound) is reported as “E, E”. With `COCc1nc(C(F)F)c(C(=O)N2CCc3[nH]cnc3[C@@H]2c2nc3ccccc3s2)o1` [Example 1808, (R)-(4-(benzo[d]thiazol-2-yl)-6,7-dihydro-1H-imidazo[4,5-c]pyridin-5(4H)-yl)(4-(difluoromethyl)-2-(methoxymethyl)oxazol-5-yl)methanone], the AC50 under setting [1] was 1 to 5 µM. On the same count and under the same terms, with `CC(C)(O)c1nc(Cl)c(C(=O)N2CCc3[nH]cnc3[C@H]2c2nc3c(F)cccc3s2)o1` [Example 1935, (S)-(4-chloro-2-(2-hydroxypropan-2-yl)oxazol-5-yl)(4-(4-fluorobenzo[d]thiazol-2-yl)-6,7-dihydro-1H-imidazo[4,5-c]pyridin-5(4H)-yl)methanone] the figure was below 0.5 µM. Take `Cn1nc(COC(F)(F)F)cc1C(=O)N1CCc2[nH]cnc2C1c1nc2c(F)cccc2s1` (centres unmarked): the AC50 under setting [2] was 1 to 5 µM. For the compound `Cn1ccc(-c2nnc(C(=O)N3CCc4[nH]cnc4[C@@H]3c3nc4ccccc4s3)o2)n1` [Example 1806, (R)-(4-(benzo[d]thiazol-2-yl)-6,7-dihydro-1H-imidazo[4,5-c]pyridin-5(4H)-yl)(5-(1-methyl-1H-pyrazol-3-yl)-1,3,4-oxadiazol-2-yl)methanone], the AC50 under setting [1] was 1 to 5 µM. Turning to `O=C(c1nccs1)N1CCc2[nH]cnc2[C@H]1c1nc2ccc(Br)cc2[nH]1` [Example 933, (S)-(4-(6-bromo-1H-benzo[d]imidazol-2-yl)-6,7-dihydro-1H-imidazo[4,5-c]pyridin-5(4H)-yl)(thiazol-2-yl)methanone], the AC50 under setting [1] lay within 1 to 5 µM.

For `O=C(c1nnc(-c2ccccn2)o1)N1CC2(CC2)c2[nH]cnc2[C@@H]1c1nc2ccccc2s1` [Example 1683, (R)-(4′-(benzo[d]thiazol-2-yl)spiro[cyclopropane-1,7′-imidazo[4,5-c]pyridin]-5′(1′H,4′H,6′H)-yl)(5-(pyridin-2-yl)-1,3,4-oxadiazol-2-yl)methanone], the AC50 under setting [1] was 1 to 5 µM.
